Consider 26 molecules from US20230373985A1 (Origenis Gmbh, priority 2020, published 2023).

For assay [1], the target named is T1, wt human JAK1, catalytic site (Homo sapiens, UniProt P23458).
T1 construct: wt human JAK1, catalytic site; purchased ThermoFisher
Put plainly: HTRF KinEASE assay, JAK1. In kind it is biochemical. The settings on record: 2.5 μM ATP; read-out: IC50, Activity Toward JAK1. An outline of the steps:
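Two-step HTRF KinEASE assay: compound, kinase/biotinylated TK substrate and ATP were incubated at least 30 min at room temperature. Antibody plus streptavidin-XL665 was then added and plates were read after 60 min. Inhibition was derived from emission ratios according to the kit protocol.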

Assay [2] concerns the target T2, wt human TYK2, catalytic site (Homo sapiens, UniProt P29597).
T2 construct: wt human TYK2, catalytic site; purchased SignalChem
T2 sequence (P29597 897-1176 limits assumed): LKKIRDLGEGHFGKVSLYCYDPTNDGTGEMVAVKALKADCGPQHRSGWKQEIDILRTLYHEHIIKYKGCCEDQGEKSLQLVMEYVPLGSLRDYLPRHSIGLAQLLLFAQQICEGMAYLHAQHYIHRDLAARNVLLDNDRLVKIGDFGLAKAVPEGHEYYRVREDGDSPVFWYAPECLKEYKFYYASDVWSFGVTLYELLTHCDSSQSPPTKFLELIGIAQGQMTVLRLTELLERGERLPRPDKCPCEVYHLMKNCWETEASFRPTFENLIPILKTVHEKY
Description: HTRF KinEASE assay, TYK2. In kind it is biochemical. The settings on record: 1 μM ATP; read-out: IC50, Activity Toward TYK2. An outline of the steps:
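HTRF KinEASE-TK readout with 1 μM biotinylated TK substrate in 1× kinase buffer, ≥30 min at room temperature, then antibody/streptavidin-XL665 detection for 60 min. TYK2 at 2 nM with 1 μM ATP; JAK2 at 1 nM with 100 μM ATP. Analysis uses emission ratios.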
For orientation: TR-FRET usually uses a lanthanide donor and a delayed reading to cut background.

T1 sequence (P23458 875-1153 limits assumed): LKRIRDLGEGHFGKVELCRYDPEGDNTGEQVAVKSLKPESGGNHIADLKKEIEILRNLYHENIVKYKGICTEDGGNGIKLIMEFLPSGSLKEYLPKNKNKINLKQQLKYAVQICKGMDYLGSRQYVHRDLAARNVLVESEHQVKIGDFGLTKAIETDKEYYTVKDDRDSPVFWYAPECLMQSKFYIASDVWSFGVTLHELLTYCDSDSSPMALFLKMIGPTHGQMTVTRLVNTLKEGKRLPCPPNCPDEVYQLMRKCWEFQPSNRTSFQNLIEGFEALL

For `CCc1cnnn1-c1ccc(Nc2cn(-c3c(Cl)cccc3Cl)nc2C(N)=O)cc1` [compound 411, 1-(2,6-dichlorophenyl)-4-((4-(5-ethyl-1H-1,2,3-triazol-1-yl)phenyl)amino)-1H-pyrazole-3-carboxamide], the results for the concentration for half-maximal inhibition (IC50) in assay [1] and in assay [2] were 10 to 100 nM and under 10 nM, respectively.
With `NC(=O)c1nn(-c2c(Cl)cc(F)cc2Cl)cc1Nc1ccc(C(=O)N2CCOCC2)cc1` [compound 412, 1-(2,6-dichloro-4-fluorophenyl)-4-((4-(morpholine-4-carbonyl)phenyl)amino)-1H-pyrazole-3-carboxamide], the IC50 in assay [1] and in assay [2] was 10 to 100 nM each time.
Consider `CN1CCC(N(C)C(=O)c2ccc(Nc3cn(-c4c(Cl)cc(F)cc4Cl)nc3C(N)=O)cc2)CC1` [compound 413, 1-(2,6-dichloro-4-fluorophenyl)-4-((4-(methyl(1-methylpiperidin-4-yl)carbamoyl)phenyl)amino)-1H-pyrazole-3-carboxamide], for which the IC50 in assay [1] was 10 to 100 nM; in assay [2], under 10 nM.
`COCCNC(=O)c1ccc(Nc2cn(-c3c(Cl)cccc3Cl)nc2C(N)=O)cc1` [compound 419, 1-(2,6-dichlorophenyl)-4-((4-((2-methoxyethyl)carbamoyl)phenyl)amino)-1H-pyrazole-3-carboxamide]: the IC50 in assay [1] and in assay [2] was 10 to 100 nM each time.
Turning to `COCCCNC(=O)c1ccc(Nc2cn(-c3c(Cl)cccc3Cl)nc2C(N)=O)cc1` [compound 420, 1-(2,6-dichlorophenyl)-4-((4-((3-methoxypropyl)carbamoyl)phenyl)amino)-1H-pyrazole-3-carboxamide], the IC50 in assay [1] and in assay [2] was 100 to 1000 nM each time.
As for `NC(=O)c1nn(-c2c(Cl)cccc2Cl)cc1Nc1ccc(N2CCOCC2)cn1` [compound 428, 1-(2,6-dichlorophenyl)-4-((5-morpholinopyridin-2-yl)amino)-1H-pyrazole-3-carboxamide], the IC50 in assay [1] and in assay [2] was 100 to 1000 nM throughout.
In the case of `Cc1cccc2nnc(-c3ccc(Nc4cn(-c5c(Cl)cccc5Cl)nc4C(N)=O)nc3)n12` [compound 429, 1-(2,6-dichlorophenyl)-4-((5-(5-methyl-[1,2,4]triazolo[4,3-a]pyridin-3-yl)pyridin-2-yl)amino)-1H-pyrazole-3-carboxamide], the half-maximal inhibitory concentration (IC50) lay within 100 to 1000 nM in assay [1] and 10 to 100 nM in assay [2].
Take `Cc1ncnn1-c1ccc(Nc2cn(-c3c(Cl)cccc3Cl)nc2C(N)=O)nc1` [compound 430, 1-(2,6-dichlorophenyl)-4-((5-(5-methyl-1H-1,2,4-triazol-1-yl)pyridin-2-yl)amino)-1H-pyrazole-3-carboxamide]: the IC50 in assay [1] and in assay [2] was 100 to 1000 nM each time.
`CCn1ncnc1-c1ccc(Nc2cn(-c3c(Cl)cccc3Cl)nc2C(N)=O)nc1` [compound 431, 1-(2,6-dichlorophenyl)-4-((5-(1-ethyl-1H-1,2,4-triazol-5-yl)pyridin-2-yl)amino)-1H-pyrazole-3-carboxamide]: the results for the IC50 in assay [1] and in assay [2] were 10 to 100 nM and 100 to 1000 nM, respectively.
In the case of `Cc1cnnn1-c1ccc(Nc2cn(-c3c(Cl)cccc3Cl)nc2C(N)=O)nc1` [compound 432, 1-(2,6-dichlorophenyl)-4-((5-(5-methyl-1H-1,2,3-triazol-1-yl)pyridin-2-yl)amino)-1H-pyrazole-3-carboxamide], the IC50 in assay [1] lay within 10 to 100 nM; in assay [2], 100 to 1000 nM.
As to `Cn1cc(C(F)(F)F)nc1-c1ccc(Nc2cn(-c3c(Cl)cccc3Cl)nc2C(N)=O)nc1` [compound 433, 1-(2,6-dichlorophenyl)-4-((5-(1-methyl-4-(trifluoromethyl)-1H-imidazol-2-yl)pyridin-2-yl)amino)-1H-pyrazole-3-carboxamide], the IC50 in assay [1] and in assay [2] was 10 to 100 nM throughout.
Regarding `Cc1nnnn1-c1ccc(Nc2cn(-c3c(Cl)cccc3Cl)nc2C(N)=O)nc1` [compound 435, 1-(2,6-dichlorophenyl)-4-((5-(5-methyl-1H-tetrazol-1-yl)pyridin-2-yl)amino)-1H-pyrazole-3-carboxamide], the IC50 in assay [1] and in assay [2] was 10 to 100 nM throughout.
In the case of `NC(=O)c1nn(-c2c(Cl)cccc2Cl)cc1Nc1ccc(-n2nncc2C(F)(F)F)cc1` [compound 438, 1-(2,6-dichlorophenyl)-4-((4-(5-(trifluoromethyl)-1H-1,2,3-triazol-1-yl)phenyl)amino)-1H-pyrazole-3-carboxamide], the IC50 in assay [1] was in the range of 100 to 1000 nM; in assay [2] it was 10 to 100 nM.
For the molecule `NC(=O)c1nn(-c2c(Cl)cccc2Cl)cc1Nc1ccc(C(=O)N2CC(O)C2)cn1` [compound 439, 1-(2,6-dichlorophenyl)-4-((5-(3-hydroxyazetidine-1-carbonyl)pyridin-2-yl)amino)-1H-pyrazole-3-carboxamide], the concentration for half-maximal inhibition (IC50) in assay [1] was in the range of 10 to 100 nM; in assay [2], 100 to 1000 nM.
`NC(=O)c1nn(-c2c(Cl)cccc2Cl)cc1Nc1ccc(CC(=O)N2CCOCC2)nc1` [compound 440, 1-(2,6-dichlorophenyl)-4-((6-(2-morpholino-2-oxoethyl)pyridin-3-yl)amino)-1H-pyrazole-3-carboxamide]: the IC50 in assay [1] fell in the range of 10 to 100 nM; in assay [2], 100 to 1000 nM.
On to `NC(=O)c1nn(-c2c(Cl)cccc2Cl)cc1Nc1ccc(CC(=O)N2CC(F)C2)nc1` [compound 441, 1-(2,6-dichlorophenyl)-4-((6-(2-(3-fluoroazetidin-1-yl)-2-oxoethyl)pyridin-3-yl)amino)-1H-pyrazole-3-carboxamide], for which the IC50 in assay [1] and in assay [2] was 100 to 1000 nM in each case.
With `CN(C)C1CCN(C(=O)c2ccc(Nc3cn(-c4c(Cl)cccc4Cl)nc3C(N)=O)nc2)CC1` [compound 442, 1-(2,6-dichlorophenyl)-4-((5-(4-(dimethylamino)piperidine-1-carbonyl)pyridin-2-yl)amino)-1H-pyrazole-3-carboxamide], the IC50 in assay [1] and in assay [2] was 100 to 1000 nM throughout.
Consider `NC(=O)c1nn(-c2c(Cl)cccc2Cl)cc1Nc1ccc(C(=O)N2CC[C@@H](F)C2)cn1` [compound 443, (R)-1-(2,6-dichlorophenyl)-4-((5-(3-fluoropyrrolidine-1-carbonyl)pyridin-2-yl)amino)-1H-pyrazole-3-carboxamide], for which the IC50 in assay [1] and in assay [2] was 10 to 100 nM in each case.
For `N#CC1CN(C(=O)c2ccc(Nc3cn(-c4c(Cl)cccc4Cl)nc3C(N)=O)nc2)C1` [compound 444, 4-((5-(3-cyanoazetidine-1-carbonyl)pyridin-2-yl)amino)-1-(2,6-dichlorophenyl)-1H-pyrazole-3-carboxamide], the IC50 in assay [1] and in assay [2] was 10 to 100 nM throughout.
For the molecule `Cn1nnnc1-c1ccc(Nc2cn(-c3c(Cl)cccc3Cl)nc2C(N)=O)nc1` [compound 445, 1-(2,6-dichlorophenyl)-4-((5-(1-methyl-1H-tetrazol-5-yl)pyridin-2-yl)amino)-1H-pyrazole-3-carboxamide], the IC50 in assay [1] and in assay [2] was 10 to 100 nM throughout.
Take `NC(=O)c1nn(-c2c(Cl)cccc2Cl)cc1Nc1ccc(-c2nnc3cncc(Cl)n23)nc1` [compound 447, 4-((6-(5-chloro-[1,2,4]triazolo[4,3-a]pyrazin-3-yl)pyridin-3-yl)amino)-1-(2,6-dichlorophenyl)-1H-pyrazole-3-carboxamide]: the concentration for half-maximal inhibition (IC50) in assay [1] and in assay [2] was 10 to 100 nM in each case.
On to `CN1CCCN(C(=O)c2ccc(Nc3cn(-c4c(Cl)cccc4Cl)nc3C(N)=O)nc2)CC1` [compound 448, 1-(2,6-dichlorophenyl)-4-((5-(4-methyl-1,4-diazepane-1-carbonyl)pyridin-2-yl)amino)-1H-pyrazole-3-carboxamide], for which the figures for the IC50 in assay [1] and in assay [2] were 10 to 100 nM and 100 to 1000 nM, respectively.
As to `NC(=O)c1nn(-c2c(Cl)cccc2Cl)cc1Nc1ccc(C(=O)N2CC(F)C2)cn1` [compound 449, 1-(2,6-dichlorophenyl)-4-((5-(3-fluoroazetidine-1-carbonyl)pyridin-2-yl)amino)-1H-pyrazole-3-carboxamide], the IC50 in assay [1] and in assay [2] was 100 to 1000 nM each time.
Regarding `NC(=O)c1nn(-c2c(Cl)cccc2Cl)cc1Nc1ccc(CN2CCS(=O)(=O)CC2)nc1` [compound 455, 1-(2,6-dichlorophenyl)-4-((6-((1,1-dioxidothiomorpholino)methyl)pyridin-3-yl)amino)-1H-pyrazole-3-carboxamide], the results for the IC50 in assay [1] and in assay [2] were 100 to 1000 nM and 10 to 100 nM, respectively.
The matching figures for `N#Cc1cccc(Cl)c1-n1cc(Nc2ccc(C(=O)N3CCOCC3)cc2)c(C(N)=O)n1` [compound 458, 1-(2-chloro-6-cyanophenyl)-4-((4-(morpholine-4-carbonyl)phenyl)amino)-1H-pyrazole-3-carboxamide]: 10 to 100 nM and under 10 nM.
Turning to `N#Cc1cccc(Cl)c1-n1cc(Nc2ccc(C(=O)N3CC[C@@H](F)C3)cc2)c(C(N)=O)n1` [compound 459, 1-(2-Chloro-6-cyano-phenyl)-4-[4-((R)-3-fluoro-pyrrolidine-1-carbonyl)-phenylamino]-1H-pyrazole-3-carboxylic acid amide], the IC50 in assay [1] is 10 to 100 nM; in assay [2] it was under 10 nM.

Usually IC50 stands for the concentration that gives 50% inhibition.
